Test results taken from PubChem BioAssay AID330 (DTP/NCI, 2004).
“And” between values parts separate entries of the source, which are not always exact repeats. Equal entries are not always repeated. Toxic doses and inconclusive results are not listed.

Test system: P388 leukemia ip, CD2F1 mice, survival T/C
Assay: NCI In Vivo Anticancer Drug Screen. Data for tumor model P388 Leukemia (intraperitoneal) in CD2F1 (CDF1) mice
Settings: endpoint: median survival time, higher = longer survival
Outline: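 Mice carrying the transplanted tumor received test compound or vehicle. Survival was recorded in each group, and the value is the treated-group measurement divided by that of the vehicle-treated control group.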

[1] = dose: 50.0 mg/kg/injection, schedule: Q01DX009 (ip), vehicle: saline with Tween-80
[2] = dose: 100.0 mg/kg/injection, schedule: Q01DX009 (ip), vehicle: saline with Tween-80
[3] = dose: 200.0 mg/kg/injection, schedule: Q01DX009 (ip), vehicle: saline with Tween-80
[4] = dose: 50.0 mg/kg/injection, schedule: Q01DX009 (ip), vehicle: Klucel (hydroxypropylcellulose) (HPC)
[5] = dose: 100.0 mg/kg/injection, schedule: Q01DX009 (ip), vehicle: Klucel (hydroxypropylcellulose) (HPC)
[6] = dose: 50.0 mg/kg/injection, schedule: Q01DX005 (ip), vehicle: saline with Tween-80
[7] = dose: 12.5 mg/kg/injection, schedule: Q01DX009 (ip), vehicle: Klucel (hydroxypropylcellulose) (HPC)
[8] = dose: 25.0 mg/kg/injection, schedule: Q01DX009 (ip), vehicle: Klucel (hydroxypropylcellulose) (HPC)
[9] = dose: 12.5 mg/kg/injection, schedule: Q01DX005 (ip), vehicle: saline with Tween-80

Structure (SMILES): Cn1c(=O)c2nc(-c3ccc(Cl)c(Cl)c3)c(-c3ccc(Cl)c(Cl)c3)nc2n(C)c1=O
- T/C (dose: 3.13 mg/kg/injection, schedule: Q01DX001 (ip), vehicle: saline with Tween-80): 100 % of control
- T/C (dose: 6.25 mg/kg/injection, schedule: Q01DX001 (ip), vehicle: saline with Tween-80): 104 % of control
- T/C (dose: 12.5 mg/kg/injection, schedule: Q01DX001 (ip), vehicle: saline with Tween-80): 95 % of control
- T/C (dose: 25.0 mg/kg/injection, schedule: Q01DX001 (ip), vehicle: saline with Tween-80): 96 % of control
- T/C (dose: 50.0 mg/kg/injection, schedule: Q01DX001 (ip), vehicle: saline with Tween-80): 93 % of control
- T/C (dose: 200.0 mg/kg/injection, schedule: Q01DX001 (ip), vehicle: saline with Tween-80): 91 % of control

Structure (SMILES): COC(NC(N)=O)C(=O)O (centres undefined)
- T/C [1]: 99 % of control
- T/C [2]: 99 % of control
- T/C [3]: 99 % of control

Structure (SMILES): COc1ccc(OC)c(NC(=O)Nc2ncccn2)c1
- T/C [4]: 106 % of control
- T/C [5]: 100 % of control
- T/C (dose: 200.0 mg/kg/injection, schedule: Q01DX009 (ip), vehicle: Klucel (hydroxypropylcellulose) (HPC)): 103 % of control

Structure (SMILES): Brc1ccc(CC[P+](c2ccccc2)(c2ccccc2)c2ccccc2)cc1
- T/C (dose: 25.0 mg/kg/injection, schedule: Q04DX003 (ip), vehicle: Klucel (hydroxypropylcellulose) (HPC)): 109 % of control
- T/C (dose: 50.0 mg/kg/injection, schedule: Q04DX003 (ip), vehicle: Klucel (hydroxypropylcellulose) (HPC)): 101 % of control
- T/C (dose: 100.0 mg/kg/injection, schedule: Q04DX003 (ip), vehicle: Klucel (hydroxypropylcellulose) (HPC)): 100 % of control and 105 % of control

Structure (SMILES): CCC/C=C/C=C\C(=O)O[C@@H]1[C@@H](C)[C@]2(O)[C@@H]3C=C(C)C(=O)[C@H]3CC(COC(C)=O)=C[C@H]2[C@@H]2C(C)(C)[C@]12OC(C)=O
- T/C (dose: 0.38 mg/kg/injection, schedule: Q01DX005 (ip), vehicle: saline + alcohol): 123 % of control and 92 % of control
- T/C (dose: 0.38 mg/kg/injection, schedule: Q01DX005 (ip), vehicle: saline with Tween-80): 100 % of control
- T/C (dose: 0.75 mg/kg/injection, schedule: Q01DX005 (ip), vehicle: saline with Tween-80): 105 % of control
- T/C (dose: 1.5 mg/kg/injection, schedule: Q01DX005 (ip), vehicle: saline with Tween-80): 103 % of control
- T/C (dose: 3.0 mg/kg/injection, schedule: Q01DX005 (ip), vehicle: saline with Tween-80): 117 % of control

Structure (SMILES): NC(=S)N=Nc1c(O)n(CCCO)c2ccccc12
- T/C (dose: 60.0 mg/kg/injection, schedule: Q01DX005 (ip), vehicle: Klucel (hydroxypropylcellulose) (HPC)): 93 % of control
- T/C (dose: 120.0 mg/kg/injection, schedule: Q01DX005 (ip), vehicle: Klucel (hydroxypropylcellulose) (HPC)): 100 % of control

Structure (SMILES): O=S1(=O)C(CCCCC2=Cc3ccccc3S2(=O)=O)=Cc2ccccc21
- T/C [6]: 94 % of control
- T/C (dose: 100.0 mg/kg/injection, schedule: Q01DX005 (ip), vehicle: saline with Tween-80): 100 % of control

Structure (SMILES): O=C(CCl)Nc1cc2ccccc2oc1=O
- T/C (dose: 60.0 mg/kg/injection, schedule: Q01DX005 (ip), vehicle: saline with Tween-80): 105 % of control
- T/C (dose: 120.0 mg/kg/injection, schedule: Q01DX005 (ip), vehicle: saline with Tween-80): 109 % of control

Structure (SMILES): COc1ccc(/C=C\C(C)=N\NC(=S)Nc2ccc(Br)cc2)cc1
- T/C (dose: 50.0 mg/kg/injection, schedule: Q01DX005 (ip), vehicle: Klucel (hydroxypropylcellulose) (HPC)): 97 % of control
- T/C (dose: 100.0 mg/kg/injection, schedule: Q01DX005 (ip), vehicle: Klucel (hydroxypropylcellulose) (HPC)): 96 % of control
- T/C (dose: 200.0 mg/kg/injection, schedule: Q01DX005 (ip), vehicle: Klucel (hydroxypropylcellulose) (HPC)): 89 % of control

Structure (SMILES): CN1C=c2c3c(ccc2=C2C=CC4C=C5OCOC5=CC4=C21)OCO3 (centres undefined)
- T/C (dose: 4.0 mg/kg/injection, schedule: Q01DX009 (ip), vehicle: saline with Tween-80): 113 % of control
- T/C (dose: 8.0 mg/kg/injection, schedule: Q01DX009 (ip), vehicle: saline with Tween-80): 107 % of control
- T/C (dose: 16.0 mg/kg/injection, schedule: Q01DX009 (ip), vehicle: saline with Tween-80): 110 % of control

Structure (SMILES): O=[N+]([O-])c1ccc(N2N=N[C@@H]3C4CCC(C4O)[C@@H]32)cc1 (some centres undefined)
- T/C [1]: 88 % of control
- T/C [2]: 97 % of control
- T/C [3]: 89 % of control

Structure (SMILES): [O-][n+]1nc2ccccc2c2ccccc21
- T/C [7]: 105 % of control
- T/C [8]: 105 % of control
- T/C [4]: 105 % of control and 97 % of control
- T/C [5]: 102 % of control

Structure (SMILES): C=CCNSc1cccc([N+](=O)[O-])c1
- T/C (dose: 6.25 mg/kg/injection, schedule: Q01DX009 (ip), vehicle: Klucel (hydroxypropylcellulose) (HPC)): 121 % of control
- T/C [7]: 120 % of control
- T/C [8]: 121 % of control
- T/C [4]: 102 % of control and 103 % of control and 115 % of control

Structure (SMILES): CCOc1c(N=Nc2ccc(Cl)cc2Cl)c(C)nn1C(=S)SC
- T/C (dose: 60.0 mg/kg/injection, schedule: Q01DX005 (ip), vehicle: Klucel + Tween-80): 103 % of control
- T/C (dose: 120.0 mg/kg/injection, schedule: Q01DX005 (ip), vehicle: Klucel + Tween-80): 107 % of control

Structure (SMILES): C=C(C)C1CC=C(C)C(CCC2C(=C)CCC3C(C)(C)C(OC4OC(CO)C(O)C(O)C4NC(C)=O)CCC23C)C1(C)CCC(=O)O (centres undefined)
- T/C (dose: 35.75 mg/kg/injection, schedule: Q01DX005 (ip), vehicle: Klucel (hydroxypropylcellulose) (HPC)): 91 % of control
- T/C (dose: 71.5 mg/kg/injection, schedule: Q01DX005 (ip), vehicle: Klucel (hydroxypropylcellulose) (HPC)): 87 % of control
- T/C (dose: 143.0 mg/kg/injection, schedule: Q01DX005 (ip), vehicle: Klucel (hydroxypropylcellulose) (HPC)): 97 % of control

Structure (SMILES): C[N+](C)=c1ccc2nc3c(ccc4ccccc43)oc-2c1
- T/C (dose: 3.12 mg/kg/injection, schedule: Q01DX005 (ip), vehicle: saline with Tween-80): 105 % of control
- T/C (dose: 6.25 mg/kg/injection, schedule: Q01DX005 (ip), vehicle: saline with Tween-80): 105 % of control
- T/C [9]: 103 % of control

Structure (SMILES): COc1ccc2c(c1O)C13CC=NC(C2)C1C(C)(C)C(C)(C)C(=O)C3 (centres undefined)
- T/C [9]: 100 % of control
- T/C (dose: 25.0 mg/kg/injection, schedule: Q01DX005 (ip), vehicle: saline with Tween-80): 101 % of control
- T/C [6]: 100 % of control and 97 % of control

Structure (SMILES): CCN(CC)CCNc1n[nH]c(=O)c2ccccc12
- T/C [1]: 104 % of control
- T/C [2]: 101 % of control
- T/C [3]: 95 % of control

Structure (SMILES): OCCN(CCCN(CCO)C(=S)S)C(=S)S.[Cu+2]
- T/C (dose: 12.5 mg/kg/injection, schedule: Q01DX005 (ip), vehicle: saline + Tween-80 + alcohol): 98 % of control
- T/C (dose: 25.0 mg/kg/injection, schedule: Q01DX005 (ip), vehicle: saline + Tween-80 + alcohol): 99 % of control
- T/C (dose: 50.0 mg/kg/injection, schedule: Q01DX005 (ip), vehicle: saline + Tween-80 + alcohol): 102 % of control and 104 % of control

Structure (SMILES): Nc1nc(=S)c2ncn(C3CC(O)C(CO)O3)c2[nH]1 (centres undefined)
- T/C (dose: 10.0 mg/kg/injection, schedule: Q01DX009 (ip), vehicle: Klucel (hydroxypropylcellulose) (HPC)): 118 % of control
- T/C (dose: 12.5 mg/kg/injection, schedule: Q01DX005 (ip), vehicle: saline): 118 % of control
- T/C (dose: 12.5 mg/kg/injection, schedule: Q01DX005 (iv), vehicle: saline): 101 % of control
- T/C [7]: 122 % of control
- T/C (dose: 20.0 mg/kg/injection, schedule: Q01DX009 (ip), vehicle: Klucel (hydroxypropylcellulose) (HPC)): 95 % of control
- T/C (dose: 25.0 mg/kg/injection, schedule: Q01DX005 (ip), vehicle: saline): 109 % of control
- T/C (dose: 25.0 mg/kg/injection, schedule: Q01DX005 (iv), vehicle: saline): 102 % of control
- T/C (dose: 25.0 mg/kg/injection, schedule: Q01DX009 (ip), vehicle: saline sonified): 168 % of control
- T/C (dose: 25.0 mg/kg/injection, schedule: Q01DX009 (ip), vehicle: saline): 117 % of control
- T/C (dose: 50.0 mg/kg/injection, schedule: Q01DX005 (ip), vehicle: saline): 109 % of control
- T/C (dose: 50.0 mg/kg/injection, schedule: Q01DX005 (iv), vehicle: saline): 102 % of control and 106 % of control
- T/C [4]: 118 % of control
- T/C [1]: 162 % of control
- T/C (dose: 100.0 mg/kg/injection, schedule: Q01DX005 (iv), vehicle: saline): 103 % of control and 108 % of control
- T/C [5]: 113 % of control
- T/C (dose: 100.0 mg/kg/injection, schedule: Q01DX009 (ip), vehicle: saline): 169 % of control
- T/C (dose: 200.0 mg/kg/injection, schedule: Q01DX005 (ip), vehicle: saline): 153 % of control
- T/C (dose: 200.0 mg/kg/injection, schedule: Q01DX005 (iv), vehicle: saline): 122 % of control
- T/C (dose: 200.0 mg/kg/injection, schedule: Q01DX009 (ip), vehicle: saline): 114 % of control
